Measured values from ChEMBL document CHEMBL1131791 (Bioorg Med Chem Lett, 1999).

Legend:
D(2) dopamine receptor [1] = biological target: T1, D(2) dopamine receptor (Homo sapiens, UniProt P14416); assay: Ability to displace [3H]spiperone from the cloned human Dopamine receptor D2L stably expressed in Chinese hamster ovary (CHO) cells was determined.; assay type: cell-based
D(1A) dopamine receptor = D(1A) dopamine receptor (Bos taurus, UniProt Q95136); assay: Ability to displace D1 selective radioligand [3H]-SCH- 23390 in bovine striatal membrane preparations was determined; assay type: cell membranes, Striatum
D(1A) dopamine receptor, sequence (Q95136 whole entry): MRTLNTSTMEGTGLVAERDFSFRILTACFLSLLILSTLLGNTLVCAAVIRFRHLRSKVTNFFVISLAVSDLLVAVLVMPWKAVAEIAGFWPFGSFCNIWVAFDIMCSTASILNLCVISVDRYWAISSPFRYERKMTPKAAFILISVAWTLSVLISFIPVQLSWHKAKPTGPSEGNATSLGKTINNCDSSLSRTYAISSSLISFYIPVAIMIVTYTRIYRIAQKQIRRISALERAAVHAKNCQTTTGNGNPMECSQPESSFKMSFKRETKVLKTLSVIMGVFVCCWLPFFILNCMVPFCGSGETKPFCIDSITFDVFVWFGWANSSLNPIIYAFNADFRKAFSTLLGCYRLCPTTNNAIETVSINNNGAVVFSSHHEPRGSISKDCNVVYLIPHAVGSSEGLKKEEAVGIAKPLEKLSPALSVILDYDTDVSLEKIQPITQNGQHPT

D(3) dopamine receptor = D(3) dopamine receptor (Homo sapiens, UniProt P35462); assay: Ability to displace [3H]spiperone from the cloned human D3 dopamine receptor stably expressed in Chinese hamster ovary (CHO) cells was determined.; assay type: cell-based
D(3) dopamine receptor, sequence (P35462 whole entry): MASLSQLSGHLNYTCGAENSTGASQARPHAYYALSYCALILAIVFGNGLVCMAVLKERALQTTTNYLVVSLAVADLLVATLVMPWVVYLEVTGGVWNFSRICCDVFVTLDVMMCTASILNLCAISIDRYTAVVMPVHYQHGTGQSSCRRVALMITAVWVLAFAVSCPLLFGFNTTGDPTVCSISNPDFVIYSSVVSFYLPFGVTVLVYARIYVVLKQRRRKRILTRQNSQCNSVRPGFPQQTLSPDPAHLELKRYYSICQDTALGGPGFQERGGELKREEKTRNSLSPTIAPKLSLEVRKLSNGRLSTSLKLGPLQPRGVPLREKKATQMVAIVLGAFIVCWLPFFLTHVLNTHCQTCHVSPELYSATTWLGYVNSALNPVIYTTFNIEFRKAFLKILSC

D(2) dopamine receptor [2] = biological target: T1, D(2) dopamine receptor; assay: Ability to displace [3H]spiperone from the cloned human Dopamine receptor D2S stably expressed in Chinese hamster ovary (CHO) cells was determined.; assay type: cell-based
D(4) dopamine receptor = biological target: T2, D(4) dopamine receptor (Homo sapiens, UniProt P21917); assay: Binding affinity of compound towards human cloned Dopamine receptor D4.4 expressed in CHO cells using [3H]spiperone as radioligand; assay type: cell-based
T2 sequence (P21917 whole entry): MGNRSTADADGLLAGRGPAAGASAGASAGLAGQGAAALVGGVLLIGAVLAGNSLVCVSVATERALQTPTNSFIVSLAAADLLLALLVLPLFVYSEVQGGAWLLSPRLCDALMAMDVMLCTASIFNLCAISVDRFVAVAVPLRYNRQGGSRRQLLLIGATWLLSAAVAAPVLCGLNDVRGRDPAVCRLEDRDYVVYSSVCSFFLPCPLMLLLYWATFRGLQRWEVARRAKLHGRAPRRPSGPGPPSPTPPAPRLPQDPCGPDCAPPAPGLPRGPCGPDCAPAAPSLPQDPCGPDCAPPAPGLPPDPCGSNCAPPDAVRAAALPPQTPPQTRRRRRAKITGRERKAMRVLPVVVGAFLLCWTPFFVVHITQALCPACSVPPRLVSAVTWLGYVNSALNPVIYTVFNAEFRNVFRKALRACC

T1 sequence (P14416 whole entry): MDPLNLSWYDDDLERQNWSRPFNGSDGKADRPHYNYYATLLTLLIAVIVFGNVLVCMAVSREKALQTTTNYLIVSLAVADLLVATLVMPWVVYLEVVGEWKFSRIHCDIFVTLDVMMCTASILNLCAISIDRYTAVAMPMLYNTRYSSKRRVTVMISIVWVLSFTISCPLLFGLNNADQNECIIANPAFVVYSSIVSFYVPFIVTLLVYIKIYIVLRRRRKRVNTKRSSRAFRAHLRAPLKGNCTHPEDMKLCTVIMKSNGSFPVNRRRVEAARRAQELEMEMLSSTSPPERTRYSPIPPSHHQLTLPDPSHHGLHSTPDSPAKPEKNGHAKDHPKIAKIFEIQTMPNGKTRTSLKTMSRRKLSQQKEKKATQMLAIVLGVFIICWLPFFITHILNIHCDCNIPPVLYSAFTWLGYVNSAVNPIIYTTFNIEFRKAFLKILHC

| Structure (SMILES) | Ki (D(2) dopamine receptor [1]) [µM] | Ki (D(1A) dopamine receptor) [µM] | Ki (D(3) dopamine receptor) [µM] | Ki (D(2) dopamine receptor [2]) [µM] | Ki (D(4) dopamine receptor) [nM] |
| --- | --- | --- | --- | --- | --- |
| N#CC(C#N)=Cc1ccc(CN2CCN(c3ccccc3)CC2)[nH]1 | > 100 | 58 | 5.25 | > 100 | 9.3 |
| N#CC(C#N)=Cc1cc(CN2CCN(c3ccc(Cl)cc3)CC2)c[nH]1 | 7.35 | 5.3 | 6.95 | 10.3 | 5.7 |
| N#CC(C#N)=Cc1cc(CN2CCN(c3ccccc3)CC2)c[nH]1 | 1.85 | 7.2 | 2.35 | 0.975 | 3.9 |
| N#CC(C#N)=Cc1[nH]ccc1CN1CCN(c2ccc(Cl)cc2)CC1 | 8.95 | 13.5 | 7.6 | 15 | 125 |
| N#CC(C#N)=Cc1ccc(CN2CCN(c3ccc(Cl)cc3)CC2)[nH]1 | 48.5 | 39.5 | 31 | 59 | 11 |
| N#CC(C#N)=Cc1[nH]ccc1CN1CCN(c2ccccc2)CC1 | 4 | 22 | 6.95 | 12.8 | 160 |
